ChEMBL document CHEMBL4043065, “Simplifying nature: Towards the design of broad spectrum kinetoplastid inhibitors, inspired by acetogenins” (Bioorg Med Chem, 2017)

Experiments:
HeLa [1] = test: Cytotoxicity against human HeLa cells after 64 hrs by Alamar blue assay; format: cell-based
Trypanosoma cruzi = test: Trypanocidal activity against Trypanosoma cruzi strain CL Brener epimastogoes after 64 hrs by Alamar blue assay; format: functional
Trypanosoma brucei [2] = test: Trypanocidal activity against Trypanosoma brucei 427 procyclic forms after 64 hrs by Alamar blue assay; format: functional; details: Trypanosoma brucei, 427, 64 h
Trypanosoma brucei [3] = test: Trypanocidal activity against Trypanosoma brucei 427 blood stream forms after 64 hrs by Alamar blue assay; format: functional; details: Trypanosoma brucei, 427, 64 h
Leishmania major = test: Antileishmanial activity against Leishmania major MHOM/IL/80/Friedlin promastigotes after 72 hrs by Alamar blue assay; format: functional
Vero = test: Cytotoxicity against African green monkey Vero cells after 72 hrs by Alamar blue assay; format: cell-based; details: Chlorocebus sabaeus
Trypanosoma brucei [4] = test: Trypanocidal activity against Trypanosoma brucei blood stream forms; format: functional
HeLa [5] = test: Cytotoxicity against human HeLa cells; format: cell-based

| SMILES | EC50 (HeLa [1]) [µM] | EC50 (Trypanosoma cruzi) [µM] | EC50 (Trypanosoma brucei [2]) [µM] | EC50 (Trypanosoma brucei [3]) [µM] | EC50 (Leishmania major) [µM] | EC50 (Vero) [µM] | EC50 (Trypanosoma brucei [4]) [µM] | EC50 (HeLa [5]) [µM] |
| --- | --- | --- | --- | --- | --- | --- | --- | --- |
| Cn1cccc1C(=O)NCCCCCCOCCCC[C@H]1CCC[C@@H](Cn2cc([C@@H]3CCC[C@H](CCCCOCc4ccccc4)O3)nn2)O1 | 177 | > 500 | 5 | 4.6 | 16.3 |  |  |  |
| COCCCCCCNC(=O)c1ccco1 | > 500 | > 500 | 124 | 113 | > 500 |  |  |  |
| O=C(NCCCCCCOCCCC[C@H]1CCC[C@@H](Cn2cc([C@@H]3CCC[C@H](CCCCOCc4ccccc4)O3)nn2)O1)c1cocn1 | 21.9 | 18.3 | 9.9 | 8.4 | 21.6 | 26.6 |  |  |
| OCCCCCCOCCCC[C@H]1CCC[C@@H](Cn2cc([C@@H]3CCC[C@H](CCCCOCc4ccccc4)O3)nn2)O1 | 21.6 | 27.3 | 3.8 | 3.5 | 12.4 |  |  |  |
| C[C@H]1C=C(CCCCCCCCCC[C@H]2CCC[C@@H](c3cn(C[C@@H]4CCC[C@H](CCCCOCc5ccccc5)O4)nn3)O2)C(=O)O1 |  |  |  |  |  |  | 5.2 | 2.1 |
| CCCCCC[C@H]1CCC[C@@H](Cn2cc([C@@H]3CCC[C@H](CCCCO)O3)nn2)O1 |  |  |  |  |  |  | 1.8 | 7 |
| O=C(NCCCCCCOCCCC[C@H]1CCC[C@@H](Cn2cc([C@@H]3CCC[C@H](CCCCOCc4ccccc4)O3)nn2)O1)c1ccsc1 | > 500 | > 500 | 5 | 5.8 | 15.2 | > 500 |  |  |
| Cc1cc(C(=O)NCCCCCCOCCCC[C@H]2CCC[C@@H](Cn3cc([C@@H]4CCC[C@H](CCCCOCc5ccccc5)O4)nn3)O2)oc1C | > 100 | 135 | 3.9 | 4.6 | 72.3 |  |  |  |
| O=C(NCCCCCCOCCCC[C@H]1CCC[C@@H](Cn2cc([C@@H]3CCC[C@H](CCCCOCc4ccccc4)O3)nn2)O1)c1cccs1 | > 500 | > 500 | 4.8 | 5.1 | > 500 |  |  |  |
| NCCCCCCOCCCC[C@H]1CCC[C@@H](Cn2cc([C@@H]3CCC[C@H](CCCCOCc4ccccc4)O3)nn2)O1 | 8.1 | 16.7 | 9.1 | 5.8 | 19.2 |  |  |  |
| Cn1nccc1C(=O)NCCCCCCOCCCC[C@H]1CCC[C@@H](Cn2cc([C@@H]3CCC[C@H](CCCCOCc4ccccc4)O3)nn2)O1 | > 100 | 81.8 | 5.5 | 6.1 | 28.7 |  |  |  |
| COCCCCCCNC(=O)c1ccnn1C | > 250 | > 500 | 47.4 | 107 | > 500 |  |  |  |
| CCCCCC[C@H]1CCC[C@@H](Cn2cc([C@@H]3CCC[C@H](CCCCCCCCCCC4=C[C@H](C)OC4=O)O3)nn2)O1 |  |  |  |  |  |  | > 500 | > 1000 |
| c1ccc(COCCCCCCOCCCC[C@H]2CCC[C@@H](Cn3cc([C@@H]4CCC[C@H](CCCCOCc5ccccc5)O4)nn3)O2)cc1 | > 20 | > 500 | 29 | 4.3 | 411 |  |  |  |
| Cc1ccoc1C(=O)NCCCCCCOCCCC[C@H]1CCC[C@@H](Cn2cc([C@@H]3CCC[C@H](CCCCOCc4ccccc4)O3)nn2)O1 | 112 | > 500 | 2.5 | 4.7 | 67.8 |  |  |  |
| COCCCCCCNC(=O)c1ccc([N+](=O)[O-])o1 | 4.1 | 8 | 0.37 | 0.73 | 21 | 15.8 |  |  |
| O=C(NCCCCCCOCCCC[C@H]1CCC[C@@H](Cn2cc([C@@H]3CCC[C@H](CCCCOCc4ccccc4)O3)nn2)O1)c1ccc[nH]1 | > 100 | > 500 | 4.6 | 5 | > 500 |  |  |  |
| O=C(NCCCCCCOCCCC[C@H]1CCC[C@@H](Cn2cc([C@@H]3CCC[C@H](CCCCOCc4ccccc4)O3)nn2)O1)c1ccc(Cl)o1 | > 500 | > 500 | 3.8 | 4.5 | > 500 |  |  |  |
| O=C(NCCCCCCOCCCC[C@H]1CCC[C@@H](Cn2cc([C@@H]3CCC[C@H](CCCCOCc4ccccc4)O3)nn2)O1)c1cscn1 | > 100 | 12.6 | 5.8 | 5.7 | 21.8 |  |  |  |
| O=C(NCCCCCCOCCCC[C@H]1CCC[C@@H](Cn2cc([C@@H]3CCC[C@H](CCCCOCc4ccccc4)O3)nn2)O1)c1ccccc1 | > 250 | > 500 | 4.3 | 4.4 | > 500 |  |  |  |
| O=C(NCCCCCCOCCCC[C@H]1CCC[C@@H](Cn2cc([C@@H]3CCC[C@H](CCCCOCc4ccccc4)O3)nn2)O1)c1ccoc1 | > 500 | > 500 | 5.4 | 3.9 | 15.2 | > 500 |  |  |
| O=C(NCCCCCCOCCCC[C@H]1CCC[C@@H](Cn2cc([C@@H]3CCC[C@H](CCCCOCc4ccccc4)O3)nn2)O1)c1ccco1 | > 500 | 8 | 5 | 3.8 | 7.8 | > 500 |  |  |
| OCCCCCCOCCCC[C@H]1CCC[C@@H](Cn2cc([C@@H]3CCC[C@H](CCCCO)O3)nn2)O1 | 6.5 to 69.3 | 230 | 56.3 | 37.7 | 123 |  |  |  |
| Cc1nc(C(=O)NCCCCCCOCCCC[C@H]2CCC[C@@H](Cn3cc([C@@H]4CCC[C@H](CCCCOCc5ccccc5)O4)nn3)O2)co1 | 19.9 | 12.1 | 7.1 | 8 | 21.5 | 13.6 |  |  |
| O=C(NCCCCCCOCCCC[C@H]1CCC[C@@H](Cn2cc([C@@H]3CCC[C@H](CCCCOCc4ccccc4)O3)nn2)O1)c1ccc([N+](=O)[O-])o1 | 0.38 | 3.1 | 0.1 | 0.037 | 11.2 | 4.5 |  |  |
| Cc1ccc(C(=O)NCCCCCCOCCCC[C@H]2CCC[C@@H](Cn3cc([C@@H]4CCC[C@H](CCCCOCc5ccccc5)O4)nn3)O2)o1 | 42.7 | 187 | 3.1 | 4.7 to 4.9 | 16.1 |  |  |  |
